Data: ChEMBL document CHEMBL3885881, “DrugMatrix”

Species on record: Rattus norvegicus
Assay type: toxicity, organism-based, Sprague-Dawley
Conditions: in vivo, po, route oral GAVAGE, […]; for ABSOLUTE EOSINOPHIL / ABSOLUTE LYMPHOCYTE / ABSOLUTE MONOCYTE / ABSOLUTE SEGMENTED NEUTROPHIL / BASOPHIL / EOSINOPHIL / ERYTHROCYTE COUNT / HEMATOCRIT / HEMOGLOBIN / LEUKOCYTE COUNT / LYMPHOCYTE / MEAN CORPUSCULAR HEMOGLOBIN / MEAN CORPUSCULAR HEMOGLOBIN CONCENTRATION / MEAN CORPUSCULAR VOLUME / MONOCYTE / NEUTROPHIL / NUCLEATED RED BLOOD CELLS / PLATELET COUNT: tissue Blood; for ALANINE AMINOTRANSFERASE / ALBUMIN / ALKALINE PHOSPHATASE / ASPARTATE AMINOTRANSFERASE / BLOOD UREA NITROGEN / CARBON DIOXIDE / CHLORIDE / CHOLESTEROL / CREATINE PHOSPHOKINASE / CREATININE / GLUCOSE / LACTATE DEHYDROGENASE / LIPASE / PHOSPHORUS / POTASSIUM / SODIUM / TOTAL BILIRUBIN / TOTAL PROTEIN / URIC ACID: tissue Plasma
[1] = 0 mg/kg, 6 h, vehicle control, dose level Control, time 0.25 day
[2] = 0 mg/kg, 24 h, vehicle control, dose level Control, time 1 day
[3] = 30 mg/kg, 6 h, dose level Low, time 0.25 day

Description: DrugMatrix - Regimen: Single

SMILES: S=C=Nc1cccc2ccccc12 [1-NAPHTHYLISOTHIOCYANATE]
- ABSOLUTE EOSINOPHIL [1]: 61.17 CELLS/uL
- ABSOLUTE LYMPHOCYTE [1]: 12625.83 CELLS/uL
- ABSOLUTE MONOCYTE [1]: 417.17 CELLS/uL
- ABSOLUTE SEGMENTED NEUTROPHIL [1]: 1595.83 CELLS/uL
- BASOPHIL [1]: 0%
- EOSINOPHIL [1]: 0.33%
- ERYTHROCYTE COUNT [1]: 5.46 x10E6/uL
- HEMATOCRIT [1]: 36.02%
- HEMOGLOBIN [1]: 13.55 G/DL
- LEUKOCYTE COUNT [1]: 14.7 x10E3/uL
- LYMPHOCYTE [1]: 85.83%
- MEAN CORPUSCULAR HEMOGLOBIN [1]: 24.87 pg
- MEAN CORPUSCULAR HEMOGLOBIN CONCENTRATION [1]: 37.65 G/DL
- MEAN CORPUSCULAR VOLUME [1]: 66.03 fL
- MONOCYTE [1]: 2.67%
- NEUTROPHIL [1]: 11.17%
- NUCLEATED RED BLOOD CELLS [1]: 0 /100WBC
- PLATELET COUNT [1]: 1072.33 x10E3/uL
- ALANINE AMINOTRANSFERASE [1]: 63.33 u/L
- ALBUMIN [1]: 4.58 G/DL
- ALKALINE PHOSPHATASE [1]: 285 u/L
- ASPARTATE AMINOTRANSFERASE [1]: 116.5 u/L
- BLOOD UREA NITROGEN [1]: 9.17 mg/dL
- CARBON DIOXIDE [1]: 18.83 mmol/L
- CHLORIDE [1]: 104.5 MEQ/L
- CHOLESTEROL [1]: 68.67 mg/dL
- CREATINE PHOSPHOKINASE [1]: 421 u/L
- CREATININE [1]: 0.58 mg/dL
- GLUCOSE [1]: 160.67 mg/dL
- LACTATE DEHYDROGENASE [1]: 396 u/L
- LIPASE [1]: 10.33 u/L
- PHOSPHORUS [1]: 12.25 mg/dL
- POTASSIUM [1]: 6.42 MEQ/L
- SODIUM [1]: 142.77 MEQ/L
- TOTAL BILIRUBIN [1]: 0.25 mg/dL
- TOTAL PROTEIN [1]: 5.48 G/DL
- URIC ACID [1]: 1.65 mg/dL
- ABSOLUTE EOSINOPHIL [2]: 23.83 CELLS/uL
- ABSOLUTE LYMPHOCYTE [2]: 11026.5 CELLS/uL
- ABSOLUTE MONOCYTE [2]: 98.5 CELLS/uL
- ABSOLUTE SEGMENTED NEUTROPHIL [2]: 667.83 CELLS/uL
- BASOPHIL [2]: 0%
- EOSINOPHIL [2]: 0.17%
- ERYTHROCYTE COUNT [2]: 4.92 x10E6/uL
- HEMATOCRIT [2]: 31.9%
- HEMOGLOBIN [2]: 12.6 G/DL
- LEUKOCYTE COUNT [2]: 11.82 x10E3/uL
- LYMPHOCYTE [2]: 93%
- MEAN CORPUSCULAR HEMOGLOBIN [2]: 25.7 pg
- MEAN CORPUSCULAR HEMOGLOBIN CONCENTRATION [2]: 39.57 G/DL
- MEAN CORPUSCULAR VOLUME [2]: 64.97 fL
- MONOCYTE [2]: 0.83%
- NEUTROPHIL [2]: 6%
- NUCLEATED RED BLOOD CELLS [2]: 0 /100WBC
- PLATELET COUNT [2]: 872.33 x10E3/uL
- ALANINE AMINOTRANSFERASE [2]: 82.67 u/L
- ALBUMIN [2]: 4.17 G/DL
- ALKALINE PHOSPHATASE [2]: 321.83 u/L
- ASPARTATE AMINOTRANSFERASE [2]: 99.5 u/L
- BLOOD UREA NITROGEN [2]: 13.33 mg/dL
- CARBON DIOXIDE [2]: 33.67 mmol/L
- CHLORIDE [2]: 99.83 MEQ/L
- CHOLESTEROL [2]: 64 mg/dL
- CREATINE PHOSPHOKINASE [2]: 275.33 u/L
- CREATININE [2]: 0.21 mg/dL
- GLUCOSE [2]: 146.17 mg/dL
- LACTATE DEHYDROGENASE [2]: 101 u/L
- LIPASE [2]: 9.83 u/L
- PHOSPHORUS [2]: 8.82 mg/dL
- POTASSIUM [2]: 5.51 MEQ/L
- SODIUM [2]: 143.2 MEQ/L
- TOTAL BILIRUBIN [2]: 0.18 mg/dL
- TOTAL PROTEIN [2]: 5.83 G/DL
- URIC ACID [2]: 0.63 mg/dL
- ABSOLUTE EOSINOPHIL [3]: 14.83 CELLS/uL
- ABSOLUTE LYMPHOCYTE [3]: 9035 CELLS/uL
- ABSOLUTE MONOCYTE [3]: 384.17 CELLS/uL
- ABSOLUTE SEGMENTED NEUTROPHIL [3]: 1199.33 CELLS/uL
- BASOPHIL [3]: 0%
- EOSINOPHIL [3]: 0.17%
- ERYTHROCYTE COUNT [3]: 5.6 x10E6/uL
- HEMATOCRIT [3]: 38.25%
- HEMOGLOBIN [3]: 13.8 G/DL
- LEUKOCYTE COUNT [3]: 10.63 x10E3/uL
- LYMPHOCYTE [3]: 85.5%
- MEAN CORPUSCULAR HEMOGLOBIN [3]: 24.68 pg
- MEAN CORPUSCULAR HEMOGLOBIN CONCENTRATION [3]: 36.08 G/DL
- MEAN CORPUSCULAR VOLUME [3]: 68.37 fL
- MONOCYTE [3]: 3.67%
- NEUTROPHIL [3]: 10.67%
- NUCLEATED RED BLOOD CELLS [3]: 0 /100WBC
- PLATELET COUNT [3]: 1129.33 x10E3/uL
- ALANINE AMINOTRANSFERASE [3]: 63.33 u/L
- ALBUMIN [3]: 4.7 G/DL
- ALKALINE PHOSPHATASE [3]: 419.67 u/L
- ASPARTATE AMINOTRANSFERASE [3]: 128.33 u/L
- BLOOD UREA NITROGEN [3]: 10.5 mg/dL
- CARBON DIOXIDE [3]: 14.83 mmol/L
- CHLORIDE [3]: 104.17 MEQ/L
- CHOLESTEROL [3]: 78.67 mg/dL
- CREATINE PHOSPHOKINASE [3]: 651.17 u/L
- CREATININE [3]: 0.27 mg/dL
- GLUCOSE [3]: 216.83 mg/dL
- LACTATE DEHYDROGENASE [3]: 402.17 u/L
- LIPASE [3]: 11.67 u/L
- PHOSPHORUS [3]: 17.25 mg/dL
- POTASSIUM [3]: 7.07 MEQ/L
- SODIUM [3]: 146.68 MEQ/L
- TOTAL BILIRUBIN [3]: 0.23 mg/dL
- TOTAL PROTEIN [3]: 6.17 G/DL
- URIC ACID [3]: 3.28 mg/dL
